From ChEMBL document CHEMBL1150665, “Screening of ubiquitous plant constituents for COX-2 inhibition with a scintillation proximity based assay” (J Nat Prod, 2002) come the findings set out here.

The chains are these.
T1: Prostaglandin G/H synthase 2 (Homo sapiens, UniProt P35354)
T1 sequence (P35354 whole entry): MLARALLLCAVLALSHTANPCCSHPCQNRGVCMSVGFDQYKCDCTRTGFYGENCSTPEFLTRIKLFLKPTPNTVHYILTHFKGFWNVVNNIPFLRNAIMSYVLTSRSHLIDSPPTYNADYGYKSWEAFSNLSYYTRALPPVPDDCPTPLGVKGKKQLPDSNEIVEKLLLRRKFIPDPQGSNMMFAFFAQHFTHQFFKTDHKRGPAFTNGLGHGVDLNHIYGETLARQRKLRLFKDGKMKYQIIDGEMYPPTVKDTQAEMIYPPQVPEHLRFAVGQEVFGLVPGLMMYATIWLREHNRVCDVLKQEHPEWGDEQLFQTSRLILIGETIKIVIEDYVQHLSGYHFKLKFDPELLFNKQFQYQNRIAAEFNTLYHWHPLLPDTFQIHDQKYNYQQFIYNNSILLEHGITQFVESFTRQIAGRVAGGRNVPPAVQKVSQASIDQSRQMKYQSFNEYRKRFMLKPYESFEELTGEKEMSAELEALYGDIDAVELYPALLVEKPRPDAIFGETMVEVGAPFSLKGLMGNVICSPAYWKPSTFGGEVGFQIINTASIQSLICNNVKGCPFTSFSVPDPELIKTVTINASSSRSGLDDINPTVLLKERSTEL

T2: Prostaglandin G/H synthase 2 (Homo sapiens) (UniProt P35354)
T2 sequence (whole entry): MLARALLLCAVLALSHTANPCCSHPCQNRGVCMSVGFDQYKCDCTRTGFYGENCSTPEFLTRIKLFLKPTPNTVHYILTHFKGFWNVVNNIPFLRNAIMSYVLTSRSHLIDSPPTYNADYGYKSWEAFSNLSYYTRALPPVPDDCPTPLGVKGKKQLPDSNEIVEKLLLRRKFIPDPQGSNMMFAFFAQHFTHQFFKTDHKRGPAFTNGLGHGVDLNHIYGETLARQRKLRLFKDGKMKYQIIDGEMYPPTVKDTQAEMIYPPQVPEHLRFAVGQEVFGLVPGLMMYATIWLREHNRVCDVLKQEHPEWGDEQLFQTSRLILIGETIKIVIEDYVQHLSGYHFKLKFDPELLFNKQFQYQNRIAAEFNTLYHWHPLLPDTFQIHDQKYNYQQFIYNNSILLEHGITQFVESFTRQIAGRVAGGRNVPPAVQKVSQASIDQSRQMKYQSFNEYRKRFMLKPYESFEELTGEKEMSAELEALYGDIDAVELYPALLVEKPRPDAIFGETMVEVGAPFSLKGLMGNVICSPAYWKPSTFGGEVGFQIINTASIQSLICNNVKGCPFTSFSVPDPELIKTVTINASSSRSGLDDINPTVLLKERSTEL

B1: Prostaglandin G/H synthase 2 (Homo sapiens), P35354 (protein)
chain: MLARALLLCAVLALSHTANPCCSHPCQNRGVCMSVGFDQYKCDCTRTGFYGENCSTPEFLTRIKLFLKPTPNTVHYILTHFKGFWNVVNNIPFLRNAIMSYVLTSRSHLIDSPPTYNADYGYKSWEAFSNLSYYTRALPPVPDDCPTPLGVKGKKQLPDSNEIVEKLLLRRKFIPDPQGSNMMFAFFAQHFTHQFFKTDHKRGPAFTNGLGHGVDLNHIYGETLARQRKLRLFKDGKMKYQIIDGEMYPPTVKDTQAEMIYPPQVPEHLRFAVGQEVFGLVPGLMMYATIWLREHNRVCDVLKQEHPEWGDEQLFQTSRLILIGETIKIVIEDYVQHLSGYHFKLKFDPELLFNKQFQYQNRIAAEFNTLYHWHPLLPDTFQIHDQKYNYQQFIYNNSILLEHGITQFVESFTRQIAGRVAGGRNVPPAVQKVSQASIDQSRQMKYQSFNEYRKRFMLKPYESFEELTGEKEMSAELEALYGDIDAVELYPALLVEKPRPDAIFGETMVEVGAPFSLKGLMGNVICSPAYWKPSTFGGEVGFQIINTASIQSLICNNVKGCPFTSFSVPDPELIKTVTINASSSRSGLDDINPTVLLKERSTEL

Calls of active or inactive are those of the source. The calls are words filed in the database; no cut-off is given here.

The first data set addresses T1, Prostaglandin G/H synthase 2. Description: Inhibition of COX2.
Details: not given
Take `O=c1cc(-c2ccc(O)c(O)c2)oc2cc(O)cc(O)c12` [LUTEOLIN]: the IC50 was less than 349 µM.

Substrate in a further data set: CCCCC/C=C\C/C=C\C/C=C\C/C=C\CCCC(=O)O
Description: Activity of COX2.
Details: not given
For B1, the Km worked out at 1 µM.

A further data set addresses T1, Prostaglandin G/H synthase 2. Kind of data set: Inhibition of COX2 in LPS-stimulated bone marrow derived mast cells.
Details: not given
Molecule `O=c1cc(-c2ccc(O)c(O)c2)oc2cc(O)cc(O)c12` [LUTEOLIN] showed an IC50 of 8.73 µM. This lies in the single-digit micromolar range.

For a further data set the target is unchanged.
Details: not given
`C[C@H]1[C@H](C)CC[C@]2(C(=O)O)CC[C@]3(C)C(=CC[C@@H]4[C@@]5(C)CC[C@H](O)C(C)(C)[C@@H]5CC[C@]43C)[C@H]12` [URSOLIC ACID] registered an IC50 of 86 µM.
In turn, `c1ccc(-c2ccc(-c3ccccc3)cc2)cc1` [TANNIN PYROGALLOL] had an IC50 of 144 µM.

The target in a further data set is T2, Prostaglandin G/H synthase 2 (Homo sapiens). The note with it: at 100 µM.
Description: Inhibition of COX2 at 100 uM by scintillation proximity assay
`O=c1c(O)c(-c2cc(O)c(O)c(O)c2)oc2cc(O)cc(O)c12` had an inhibition of 62%.
For `Oc1cccc(O)c1O`, the inhibition was 57%.
`O=C(O)[C@]1(O)C[C@H](O)[C@@H](O)[C@@H](O)C1`: the inhibition was less than 30%.
`O=C1C[C@@H](c2ccc(O)cc2)Oc2cc(O)cc(O)c21` displayed an inhibition of less than 30%.
On the same count and under the same terms, as for `O=c1ccc2ccc(O)cc2o1`, the figure is less than 30%; as for `O=C/C=C/c1ccccc1`, 45%; as for `O=C(O)/C=C/c1ccc(O)c(O)c1`, 32%.
On to `C[C@@H]1O[C@@H](OC[C@H]2O[C@@H](Oc3c(-c4ccc(O)c(O)c4)oc4cc(O)cc(O)c4c3=O)[C@H](O)[C@@H](O)[C@@H]2O)[C@H](O)[C@H](O)[C@H]1O`, for which the inhibition was less than 30%.
The molecule `Oc1ccc(O)cc1` came in with an inhibition of less than 30%.
Take `C[C@@H]1O[C@@H](O[C@H]2C[C@@H](O)[C@]3(CO)[C@H]4[C@H](O)C[C@]5(C)[C@@H](C6=CC(=O)OC6)CC[C@]5(O)[C@@H]4CC[C@]3(O)C2)[C@H](O)[C@H](O)[C@H]1O`: the inhibition was less than 30%.
`CC(C)=CCCC(C)CCO` (racemic) registered an inhibition of less than 30%.
`CN1[C@@H]2CC[C@H]1C[C@@H](OC(=O)C(CO)c1ccccc1)C2` (mixture of isomers) gave an inhibition of less than 30%.
With `O=C(O)C1CCCCN1` (stereo not drawn), the inhibition is less than 30%.
The molecule `OC[C@H]1O[C@@H](Oc2ccc(O)cc2)[C@H](O)[C@@H](O)[C@@H]1O` registered an inhibition of less than 30%.
The same measure, in the same setting: in the case of `O=C(O)C1=C[C@@H](O)[C@@H](O)[C@H](O)C1` it was less than 30%; in that of `C=C(C)[C@@H]1CC[C@]2(CO)CC[C@]3(C)[C@H](CC[C@@H]4[C@@]5(C)CC[C@H](O)C(C)(C)[C@@H]5CC[C@]43C)[C@@H]12`, less than 30%.
For `Cn1c(=O)c2c(ncn2C)n(C)c1=O`, the inhibition is less than 30%.
Regarding `O=C(O)CCCCC1CCSS1` (stereo not drawn), the inhibition is less than 30%.
`CC12CCC(CC1=O)C2(C)C` (stereo not drawn) gave an inhibition of less than 30%.
`Cc1ccc(C(C)C)c(O)c1` came in with an inhibition of less than 30%.
`CC(C)C1=CC2=CC[C@@H]3[C@](C)(CCC[C@@]3(C)C(=O)O)[C@H]2CC1` displayed an inhibition of less than 30%.
Consider `COc1cc2ccc(=O)oc2cc1O`, for which the inhibition was less than 30%.
On to `CC[C@H]1CN2CCc3cc(OC)c(OC)cc3[C@@H]2C[C@@H]1C[C@H]1NCCc2cc(OC)c(OC)cc21`, for which the inhibition was less than 30%.
As to `O=c1ccc2ccccc2o1`, the inhibition was less than 30%.
With `CC(C)=CCC[C@](C)(O)[C@H]1CC=C(C)CC1`, the inhibition is less than 30%.
For `O=c1ccc2cc(O[C@@H]3O[C@H](CO)[C@@H](O)[C@H](O)[C@H]3O)c(O)cc2o1`, the inhibition was less than 30%.
Molecule `O=C(/C=C/c1ccc(O)c(O)c1)O[C@@H]1C[C@](O)(C(=O)O)C[C@@H](O)[C@H]1O` had an inhibition of less than 30%.
In the case of `COc1ccc(C(=O)O)cc1O`, the inhibition is less than 30%.
In turn, `C=C(C)[C@H]1CC=C(C)CC1` had an inhibition of less than 30%.
In the case of `O=c1cc(-c2ccc(O)c(O)c2)oc2cc(O)cc(O)c12` [LUTEOLIN], the inhibition is less than 30%.
With `CC(C)=CCC[C@@H](C)CC=O`, the inhibition was less than 30%.
The molecule `Cn1c(=O)c2[nH]cnc2n(C)c1=O` came in with an inhibition of less than 30%.
Take `O=C(O)c1cc(O)c2c(c1)[C@@H]([C@H]1c3cc(C(=O)O)cc(O)c3C(=O)c3c(O[C@@H]4O[C@H](CO)[C@@H](O)[C@H](O)[C@H]4O)cccc31)c1cccc(O[C@@H]3O[C@H](CO)[C@@H](O)[C@H](O)[C@H]3O)c1C2=O`: the inhibition is less than 30%.
In turn, `O=C(O)/C=C/c1ccc(O)cc1` returned an inhibition of less than 30%.
The molecule `O=c1cc(-c2ccccc2)oc2cc(O)cc(O)c12` gave an inhibition of less than 30%.
For the molecule `COc1cc([C@@H]2c3cc4c(cc3[C@H](O)[C@H]3COC(=O)[C@H]23)OCO4)cc(OC)c1OC`, the inhibition is less than 30%.
The molecule `CN1[C@@H]2C[C@@H](OC(=O)[C@H](CO)c3ccccc3)C[C@H]1[C@@H]1O[C@H]12` showed an inhibition of less than 30%.
In turn, `O=C(O)c1cccnc1` returned an inhibition of less than 30%.
Molecule `C[N+]1(C)CCC[C@H]1C(=O)[O-]` came in with an inhibition of less than 30%.
Same read-out and setting: in the case of `C[n+]1cccc(C(=O)[O-])c1` it was less than 30%; in that of `CC12CCC(CC1)C(C)(C)O2`, less than 30%.
Still for that read-out and setting: as for `CC(C)[C@@H]1CC[C@@H](C)C[C@H]1O`, the figure is less than 30%; as for `O=C(O)c1cc(O)c(O)c(O)c1`, less than 30%.

The target is the same in the next data set. Kind of data set: Inhibition of COX2 at 10 uM by scintillation proximity assay.
Details: not given
Turning to `O=c1c(O)c(-c2cc(O)c(O)c(O)c2)oc2cc(O)cc(O)c12`, the result was inactive.
Consider `Oc1cccc(O)c1O`, for which the result was inactive.
Still for that read-out and setting: in the case of `C=CCc1ccc(O)c(OC)c1` it was “inactive”; in that of `O=C/C=C/c1ccccc1`, “inactive”; in that of `O=C(O)/C=C/c1ccc(O)c(O)c1`, “inactive”.
